Key:
[1] = system: hippocampal microglial reaction; experiment: Microglial reaction (IB4 histochemistry) after stereotaxic intrahippocampal microinjection, AMPA excitotoxicity model; format: in vivo, rat; conditions: for density of reactive microcytes (IB4-stained) / hippocampal microgliosis area: rat dorsal hippocampus, 24 hours after lesion, mean ± SEM, n=4; for hippocampal microgliosis area: two 0.5 μl injections 2 h apart (5.4 mM AMPA and/or 20 μM glibenclamide)
Experimental: (§1) In this neurodegenerative model, rats were anaesthetized with equithesin (a mixture of chloral hydrate and sodium pentobarbitone; 0.3 ml/100 g body wt, i.p.), and placed on a Kopf stereotaxic frame with the incisor bar set at −3.3 mm. Intracerebral injections aimed at the dorsal hippocampus were performed at 3.3 mm caudal to bregma, 2.2 mm lateral, and 2.9 mm ventral from dura (cf. G. Paxinos et al., “The rat brain in stereotaxic coordinates”, Sydney: Academic Press 1986). A volume of 0.5 μl was injected over a period of 5 min.
(§2) Four different groups of rats received two injections in a 2-hour interval as follows: a) sham rats (n=4) received two injections of PBS; b) AMPA rats (n=4) received the first injection of 5.4 mM AMPA and the second of PBS; c) glibenclamide rats (n=4) received two injections of 20 μM glibenclamide; d) AMPA+glibenclamide rats (n=4) received 5.4 mM AMPA+20 μM glibenclamide in the first injection and 20 μM glibenclamide in the second injection. All rats were sacrified 24 hours after the lesion.
(§3) Rats were transcardially perfused with 300 ml of 0.1 M phosphate buffer (PB, pH 7.4) followed by 300 ml ice-cold fixative (flow rate 20 ml/min). The fixative consisted of 4% (w/v) paraformaldehyde in PB. Brains were removed, crioprotected with 15% (w/v) sucrose in PB and then, frozen with dry ice.
Cryostat sections (12 μm) were obtained at the level of dorsal hippocampus (−3.3 mm to bregma). Isolectine B4 (IB4) histochemistry was performed to identify the microglial reaction (cf. C. A. Colton et al., J. Histochem. Cytochem. 1992, vol. 40, pp. 505-12). The hippocampal morphology was studied in Cresyl violet stained sections. The area of lesion and the microgliosis evaluation were performed on cresyl violet and IB4-positive stained sections respectively. These parameters were analyzed using a computer-assisted image analysis system (OPTIMAS®, BioScan Inc., Washington, USA). IB4-stained reactive microcytes were counted at ×100 magnification using an ocular grid mounted on a transmission light microscope (Axiolab, Zeiss, Göttingen, Germany). One-way ANOVA was used to compare differences between groups, followed by the LSD post-hoc test. Results are expressed as mean ± SEM.

[2] = system: AMPA induced rat hippocampal excitotoxic damage; experiment: Hippocampal CA1 lesion area (cresyl violet) after stereotaxic intrahippocampal microinjection, AMPA excitotoxicity model; format: in vivo; conditions: for area of hippocampal CA1 pyramidal layer lesion: rat dorsal hippocampus, two injections 2 h apart (5.4 mM AMPA and/or 20 μM glibenclamide), 24 hours after lesion, mean ± SEM
Experimental: as §1, §2, §3
Cryostat sections (12 μm) were obtained at the level of dorsal hippocampus (−3.3 mm to bregma). Isolectine B4 (IB4) histochemistry was performed to identify the microglial reaction (cf. C. A. Colton et al., J. Histochem. Cytochem. 1992, vol. 40, pp. 505-12). The hippocampal morphology was studied in Cresyl violet stained sections. […] These parameters were analyzed using a computer-assisted image analysis system (OPTIMAS®, BioScan Inc., Washington, USA). IB4-stained reactive microcytes were counted at ×100 magnification using an ocular grid mounted on a transmission light microscope (Axiolab, Zeiss, Göttingen, Germany). […] Results are expressed as mean ± SEM.

[3] = rat AMPA hippocampal excitotoxicity model, 20 μM glibenclamide

Compound | density of reactive microcytes (IB4-stained) [1] | hippocampal microgliosis area [1] | area of hippocampal CA1 pyramidal layer lesion [2] | effect on microglial activation (in words) [1, 3] | effect on hippocampal lesion (in words) [2, 3]
Cc1onc(O)c1CC(N)C(=O)O (stereo not drawn) [AMPA, α-amino-3-hydroxy-5-methylisoxazole-4-propionic] | 645±59 cells/mm^2 | 0.44±0.07 mm^2 | 0.130±0.015 mm^2 |  | 
COc1ccc(Cl)cc1C(=O)NCCc1ccc(S(=O)(=O)NC(=O)NC2CCCCC2)cc1 [glibenclamide] | 614±91 cells/mm^2 | 0.16±0.03 mm^2 | 0.012±0.0017 mm^2 | potentiates microglial activation | avoids hippocampal excitotoxic damage
